Results on 13 compounds are retold here after patent US20250188110A1, “SPECIFIC SMALL MOLECULE INHIBITORS THAT BLOCK KMT9 METHYLTRANSFERASE ACTIVITY AND FUNCTION” (ALBERT-LUDWIGS-UNIVERSITÄT FREIBURG, priority 2021, published 2025).

As a reminder, the IC50 is the point on the concentration scale where inhibition reaches its midpoint. Low values mean higher potency, high ones lower potency.

Assay [1] has as its target T1, KMT9 (Homo sapiens, UniProt Q9Y5N5).
T1 sequence (Q9Y5N5 1-214): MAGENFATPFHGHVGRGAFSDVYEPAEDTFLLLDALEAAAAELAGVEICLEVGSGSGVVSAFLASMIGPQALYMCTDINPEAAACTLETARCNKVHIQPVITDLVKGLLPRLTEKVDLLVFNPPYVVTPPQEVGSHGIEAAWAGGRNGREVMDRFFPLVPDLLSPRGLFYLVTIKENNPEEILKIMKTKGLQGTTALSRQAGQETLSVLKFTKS
T1 sequence (Q9UI30 1-120 isoform Q9UI30-2 partner): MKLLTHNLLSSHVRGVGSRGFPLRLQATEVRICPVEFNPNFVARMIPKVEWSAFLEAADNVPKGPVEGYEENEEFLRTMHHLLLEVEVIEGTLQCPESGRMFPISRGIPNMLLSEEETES
Briefly: KMT9 methyltransferase inhibition assay, 3H-SAM scintillation (entries 1-154). The class given is biochemical. The conditions noted are these: entries 1-154: 3H-SAM assay, 25 nM KMT9, 5 μM ETF1. The procedure: The assay was carried out in 0.5 mL Eppendorf tubes in duplicates. Assay buffer consisted of 50 mM BTP, 1 mM MgCl2, 1 mM DTT and 0.01% Triton-X^100 at a pH of 8.5 (adjusted using 1 M HCl and 1 M NaOH). 20X inhibitor stock (in DMSO), 2X enzyme stock and 4X substrate mix (both in assay buffer) were prepared. The substrate mix consisted of Tritium-labelled S-adenosylmethionine (3H-SAM), S-adenosylmethionine (SAM) and eukaryotic peptide chain release factor subunit1 (Homo sapiens, residues 140-275)(ETF1). Final assay concentrations were set to 25 nM KMT9, 0.3 μM 3H-SAM, 0.7 µM SAM and 5 μM ETF1. […] 5 μL of 4x substrate mix was added to initiate the reaction. The final reaction volume was 20 μL. For the positive control, the compound of formula (I) was replaced by DMSO; for the negative control, the compound of formula (I) was replaced by DMSO and KMT9 was replaced by assay buffer. The reaction mix was incubated in an Eppendorf thermomixer comfort at 30° C. for 2 h, shaking at 300 rpm. The reaction was quenched using 5 μL 50% trichloroacetic acid (TCA) and incubated at 25° C. for 5 minutes. 22 μL of the mixture was transferred into 96-well MultiScreen@HTS FB filter plates (Merck KGaA, Darmstadt, Germany) and washed four times with 10% TCA and two times with 100% ethanol. The plate was dried overnight, the filters were transferred into individual 6 mL Pony Vials (Perkin Elmer Inc, Waltham, MA, USA) and incubated in 3 mL of Ultima Gold scintillation cocktail (Perkin Elmer Inc, Waltham, MA, USA) for 30 minutes. The scintillation signal was measured for 3x 1 min using TriCarb 2910 TR (Perkin Elmer) scintillation counter in 3H CPM mode (LL: 0, UL: 18.6). Inhibition was calculated using the following formula: […]
With xc: signal of compound, Xpos: mean signal of positive control, Xneg: mean signal of negative control. Data fitting was carried out by GraphPad 7.0 using nonlinear fit ([Inhibitor]vs. response-variable slope (four parameters)).
For the results of the methyltransferase inhibition assay shown as “Inhibition” in Table 1, “I” represents an IC50 less than 0.1 μM, “II” represents an IC50 equal or higher than 0.1 μM and less than 1 μM, “III” represents an IC50 equal or higher than 1 µM and less than 10 µM and “IV” represents an IC50 equal or higher than 10 µM

In assay [2] the target is T1, KMT9. Briefly: Microscale thermophoresis (MST) KMT9 binding. The conditions noted are these: microscale thermophoresis, His-tag labelled KMT9 (20 nM); read-out: MST. Here is the method: To determine the binding affinity of the compounds according to the present invention and KMT9, microscale thermophoresis (MST) analysis was performed with a NanoTemper Monolith NT.115 instrument (NanoTemper Technologies GmbH). KMT9 was labelled with a RED-Tris-NTA labelling kit (NanoTemper Technologies GmbH) based on the manufacturer's instructions. Buffer including 25 mM HEPES (pH 7.5), 100 mM NaCl, 1 mM DTT and 0.05% Tween was used for the reaction buffer. Varying concentrations of the tested compounds of formula (I) as indicated in Table 1 were titrated against His-tag labelled KMT9 proteins (20 nM). Samples were loaded into standard Capillaries (NanoTemper Technologies GmbH) and MST measurements were performed using 40% MST power and 100% LED power. For each set of binding experiments, MST measurement was carried out with Binding Affinity module in MO.Control program under Nano-RED Excitation. Datasets were processed with the MO.Affinity Analysis software (NanoTemper Technologies GmbH).
For the results of the microscale thermophoresis (MST) assay shown as “MST” in Table 1, “A” represents a Kd of equal to or less than 10 nM (Kd≤10 nM); “B” represents a Kd of greater than 10 nM and equal to or less than 100 nM (10 nM<Kd<100 nM); “C” represents a Kd of greater than 100 nM and equal to or less than 1000 nM (100 nM<Kd ≤ 1000 nM); “D” represents a Kd of greater than 1000 nM (1000 nM<Kd).
For orientation: In MST a laser heats a spot of the sample, and binding alters the fluorescence response.

Assay [3] concerns the target T1, KMT9. Briefly: KMT9 thermal shift assay (SyproOrange). In kind it is binding. The conditions noted are these: ΔTm; 500 µM compound, 2 μM KMT9, 5X SO; read-out: Thermal shift. Here is the method: The assay was carried out in 96-well Hard-Shell PCR plates (Bio-Rad Laboratories Inc.). Assay buffer consisted of 50 mM BTP, 1 mM MgCl2 and 1 mM DTT at a pH of 8.5 (adjusted using 1 M HCl and 1 M NaOH). 20X inhibitor stock (in DMSO), 2X enzyme stock and 4X SyproOrange (SO) stock (both in assay buffer) were prepared. 1 μL of 20X compound, 4 μL of assay buffer, 10 μL of 2X KMT9 and 5 μL of 4X SO were pipetted. For the no-compound control, 20X inhibitor stock was replaced by DMSO. The final volume was 20 μL. The plate was spun down at 700 rpm for 1 min using a Hettich UNIVERSAL 320 centrifuge and incubated at 25° C., shaking at 600 rpm. After incubation, the plate was spun down for 1 min at 700 rpm and measurement was conducted using a CFX96 Touch Real-Time PCR Detection System (Bio-Rad Laboratories Inc.). The plate was equilibrated at 20° C. for 4 min and then heated stepwise at a rate of 1° C. per 15 s until 95° C. After every step, fluorescence was measured in FRET mode. Calculation of melting points was conducted by a Boltzman sigmoidal model using GraphPad Prism 7.0.
For the results of the thermal shift assay shown as “Thermal shift” in Table 1, “++++” represents a ΔTm of greater 20 K, “+++” represents a ΔTm of greater than 15 K and less than or equal to 20 K (15 K<ΔTm≤20 K); “++” represents a ΔTm of greater than 10 K and less than or equal to 15 K (10 K<ΔTm ≤ 15 K); “+” represents a ΔTm of equal to or less than 10 K (ΔTm≤10 K).

For the compound `Nc1ncnc2c1ncn2[C@@H]1O[C@H](CNCCCNCc2ccc(OCc3ccccc3)cc2)[C@@H](O)[C@H]1O` [321 (224), (2R,3R,4S,5R)-2-(6-amino-9H-purin-9-yl)-5-(((3-((4-(benzyloxy)benzyl)amino)propyl)amino)methyl)tetrahydrofuran-3 4-diol], in assay [1], the IC50 is above 10000 nM. Besides, in assay [2], the Kd is 100 to 1000 nM. Also, the ΔTm at 500 µM in assay [3] was at most 10 °C.
On the same counts, the results for `Nc1ncnc2c1c(-c1nccs1)cn2[C@@H]1C[C@H](CC2CNC2)[C@@H](O)[C@H]1O` [Compound 486, (1R,2S,3R,5S)-3-(4-amino-5-(thiazol-2-yl)-7H-pyrrolo[2,3-d]pyrimidin-7-yl)-5-(azetidin-3-ylmethyl) cyclopentane-1,2-diol] are above 10000 nM, above 1000 nM and at most 10 °C.
In the same order, the values of `CNc1ncnc2c1ccn2[C@@H]1C[C@H](CNC[C@H]2CCCNC2)[C@@H](O)[C@H]1O` [436 (308), (1R,2S,3R,5R)-3-[4-(Methylamino)pyrrolo[2,3-d]pyrimidin-7-yl]-5-({[(3S)-piperidin-3-ylmethyl]amino}methyl) cyclopentane-1,2-diol] are above 10000 nM, above 1000 nM and at most 10 °C.
The compound `CNc1ncnc2c1ccn2[C@@H]1C[C@H](CCCCCNCCc2ccccc2)[C@@H](O)[C@H]1O` [424 (295), (1R,2S,3R,5S)-3-(4-(Methylamino)-7H-pyrrolo[2,3-d]pyrimidin-7-yl)-5-(5-(phenethylamino)pentyl) cyclopentane-1,2-diol] showed an IC50 in assay [1] of 1000 to 10000 nM. Further, in assay [2], the Kd lay within 100 to 1000 nM. The ΔTm at 500 µM in assay [3] lay within 10 to 15 °C.
On the same counts, the results for `Nc1ncnc2c1c(-c1ccccc1)cn2[C@@H]1C[C@H](CNCCCNCCc2ccccc2)[C@@H](O)[C@H]1O` [466 (340), (1R,2S,3R,5R)-3-{4-amino-5-phenylpyrrolo[2,3-d]pyrimidin-7-yl}-5-[({3-[(2-phenylethyl)amino]propyl}amino)methyl]cyclopentane-1,2-diol] are 100 to 1000 nM, 100 to 1000 nM and 10 to 15 °C.
On the same counts, the results for `C=Cc1cn([C@@H]2C[C@H](CNCCCNCCc3ccccc3)[C@@H](O)[C@H]2O)c2ncncc12` [Compound 608, (1R,2S,3R,5R)-3-{5-ethenylpyrrolo[2,3-d]pyrimidin-7-yl}-5-[({3-[(2-phenylethyl)amino]propyl}amino)methyl]cyclopentane-1,2-diol] are above 10000 nM, 100 to 1000 nM and at most 10 °C.
In the same order, the values of `Nc1ncnc2c1c(Br)cn2[C@@H]1C[C@H](CNCCCNCCc2cccc(Oc3ccccc3)c2)[C@@H](O)[C@H]1O` [457 (329)] are 100 to 1000 nM, 10 to 100 nM and 15 to 20 °C.
Consider `CNc1ncnc2c1ccn2[C@@H]1C[C@H](CNCCCNCCc2ccc3ccccc3c2)[C@@H](O)[C@H]1O` [368 (272), (1R,2S,3R,5R)-3-(4-(methylamino)-7H-pyrrolo[2,3-a]pyrimidin-7-yl)-5-(((3-((2-(naphthalen-2-yl)ethyl)amino)propyl)amino)methyl) cyclopentane-1,2-diol], for which the IC50 in assay [1] was above 10000 nM. For the same compound, in assay [2], the Kd is above 1000 nM. Besides, the ΔTm at 500 µM in assay [3] is 10 to 15 °C.
On to `CS(=O)(=O)n1ccc(-c2cn([C@@H]3C[C@H](CNCCCNCCc4ccccc4)[C@@H](O)[C@H]3O)c3ncnc(N)c23)n1` [Compound 600, (1R,2S,3R,5R)-3-(4-Amino-5-(1-(methylsulfonyl)-1H-pyrazol-3-yl)-7H-pyrrolo[2,3-d]pyrimidin-7-yl)-5-(((3-(phenethylamino)propyl)amino)methyl)cyclopentane-1,2-diol], for which the IC50 in assay [1] was below 100 nM. In assay [2], the Kd is at most 10 nM. In assay [3], the ΔTm at 500 µM was in the range of 15 to 20 °C.
On the same counts, the results for `CN(C)C(=O)[C@H]1C[C@@H](n2cc3c4c(ncnc42)NCCC3)[C@H](O)[C@@H]1O` [Compound 625, (1S,2R,3S,4R)-2,3-Dihydroxy-N,N-dimethyl-4-(6,7,8,9-tetrahydro-2H-2,3,5,6-tetraazabenzo[cd]azulen-2-yl)cyclopentane-1-carboxamide] are above 10000 nM, above 1000 nM and at most 10 °C.
In the same order, the values of `CNc1ncnc2c1ccn2[C@@H]1C[C@H](/C=C/CCNCCc2ccccc2)[C@@H](O)[C@H]1O` [422 (293), (1R,2S,3R,5R)-3-(4-(methylamino)-7H-pyrrolo[2,3-d]pyrimidin-7-yl)-5-((E)-4-(phenethylamino)but-1-en-1-yl) cyclopentane-1,2-diol] are above 10000 nM, above 1000 nM and at most 10 °C.
On the same counts, the results for `NC[C@H]1O[C@@H](n2cc3c4c(ncnc42)NCCC3)[C@H](O)[C@@H]1O` [416 (287), (2R,3S,4R,5R)-2-(aminomethyl)-5-(6,7,8,9-tetrahydro-2H-2,3,5,6-tetraazabenzo[cd]azulen-2-yl) tetrahydrofuran-3,4-diol] are above 10000 nM, above 1000 nM and at most 10 °C.
`CNc1ncnc2c1ccn2[C@@H]1C[C@H](CNCCCNCCc2ccc(Oc3ccc(Cl)cc3)c(F)c2)[C@@H](O)[C@H]1O` [370 (274), (1S,2R,3R,5R)-3-(((3-((4-(4-chlorophenoxy)-3-fluorophenethyl)amino)propyl)amino)methyl)-5-(4-(methylamino)-7H-pyrrolo[2,3-a]pyrimidin-7-yl) cyclopentane-1,2-diol] registered an IC50 in assay [1] of 1000 to 10000 nM. For the same compound, the Kd in assay [2] was above 1000 nM. The ΔTm at 500 µM in assay [3] was in the range of 10 to 15 °C.
